Tests used:
α4β1 integrin = target: T1, α4β1 integrin (Homo sapiens, UniProt P05556+P13612); experiment: Adhesion of calcein-labeled Ramos cells to CS1 (fibronectin) peptide conjugated ovalbumin; type: cell-based; conditions: Ramos cell adhesion to CS1 conjugated ovalbumin, 30 minutes at 37° C.
T1 construct: endogenous in cells; host or cells: Ramos cells
Method in brief: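 Plates bearing CS1 fibronectin peptide coupled to ovalbumin (0.5 μg/ml coat, 3% BSA block) received calcein-labelled Ramos cells plus compound (100 μM stated) for 30 min at 37 °C. Buffer was TBS pH 7.5 with 1 mM Mg2+, Ca2+, Mn2+; bound cells quantified by fluorescence after lysis; […].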

T1 sequence (P13612 34-1032): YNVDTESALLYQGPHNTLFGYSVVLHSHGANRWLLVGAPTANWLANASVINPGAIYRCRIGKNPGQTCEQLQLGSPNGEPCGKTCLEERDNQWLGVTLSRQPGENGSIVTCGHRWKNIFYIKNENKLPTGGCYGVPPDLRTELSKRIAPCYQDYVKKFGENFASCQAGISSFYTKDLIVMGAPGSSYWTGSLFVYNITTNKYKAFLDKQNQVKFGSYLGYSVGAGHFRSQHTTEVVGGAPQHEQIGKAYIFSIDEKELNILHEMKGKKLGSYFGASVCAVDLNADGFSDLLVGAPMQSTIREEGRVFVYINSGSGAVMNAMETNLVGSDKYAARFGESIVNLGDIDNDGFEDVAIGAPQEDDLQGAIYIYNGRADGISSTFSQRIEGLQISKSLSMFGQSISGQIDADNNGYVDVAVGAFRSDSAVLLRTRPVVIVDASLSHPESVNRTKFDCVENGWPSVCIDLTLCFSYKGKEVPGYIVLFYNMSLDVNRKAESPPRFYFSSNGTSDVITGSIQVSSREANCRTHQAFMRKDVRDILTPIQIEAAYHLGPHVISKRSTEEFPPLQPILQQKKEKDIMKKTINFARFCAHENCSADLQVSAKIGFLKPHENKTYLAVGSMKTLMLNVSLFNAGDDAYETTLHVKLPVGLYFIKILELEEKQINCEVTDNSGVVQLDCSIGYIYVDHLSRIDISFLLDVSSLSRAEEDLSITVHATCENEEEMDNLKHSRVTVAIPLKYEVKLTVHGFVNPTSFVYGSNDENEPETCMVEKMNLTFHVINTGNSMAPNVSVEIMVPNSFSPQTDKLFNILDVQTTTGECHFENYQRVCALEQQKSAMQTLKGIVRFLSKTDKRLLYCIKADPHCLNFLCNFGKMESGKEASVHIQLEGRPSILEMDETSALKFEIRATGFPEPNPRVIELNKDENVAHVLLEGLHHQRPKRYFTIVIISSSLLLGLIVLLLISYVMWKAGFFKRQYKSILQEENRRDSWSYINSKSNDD
T1 sequence (P05556 21-798): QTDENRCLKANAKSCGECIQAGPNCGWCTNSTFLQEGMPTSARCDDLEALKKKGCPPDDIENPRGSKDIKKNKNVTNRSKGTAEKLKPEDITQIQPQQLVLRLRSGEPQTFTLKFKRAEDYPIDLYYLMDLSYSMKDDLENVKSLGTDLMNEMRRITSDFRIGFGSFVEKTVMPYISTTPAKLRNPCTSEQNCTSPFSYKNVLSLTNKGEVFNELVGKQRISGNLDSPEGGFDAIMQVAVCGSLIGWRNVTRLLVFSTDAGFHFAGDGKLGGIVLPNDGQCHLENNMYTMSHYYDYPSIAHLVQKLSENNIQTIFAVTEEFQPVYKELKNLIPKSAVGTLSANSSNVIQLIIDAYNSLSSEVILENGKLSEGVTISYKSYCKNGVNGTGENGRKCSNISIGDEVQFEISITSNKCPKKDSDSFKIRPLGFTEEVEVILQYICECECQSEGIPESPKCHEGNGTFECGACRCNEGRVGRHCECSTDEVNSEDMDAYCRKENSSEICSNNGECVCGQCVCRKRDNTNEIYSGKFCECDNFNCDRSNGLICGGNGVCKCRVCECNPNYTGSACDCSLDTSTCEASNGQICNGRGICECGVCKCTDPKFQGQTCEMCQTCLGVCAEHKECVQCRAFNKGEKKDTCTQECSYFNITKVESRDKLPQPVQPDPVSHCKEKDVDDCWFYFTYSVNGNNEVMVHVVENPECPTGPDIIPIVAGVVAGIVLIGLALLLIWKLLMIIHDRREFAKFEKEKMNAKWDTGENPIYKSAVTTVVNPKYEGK

SMILES	IC50 (α4β1 integrin; Table 3) [nM]	melting point [°C]	IC50 (α4β1 integrin; Table 4) [nM]
Cc1ccc([C@H](CC(=O)O)NC(=O)Nc2c(O)ccn(Cc3ccccc3Cl)c2=O)cc1 [(3S)-3-{[({1-[(2-chlorophenyl)methyl]-4-hydroxy-2-oxo-1,2-dihydro-3-pyridinyl}amino)carbonyl]amino}-3-(4-methylphenyl)propanoic acid]	10	113 to 115	–
CCCCN(C(=O)N[C@@H](CC(=O)O)c1ccc2c(c1)OCO2)C1CC(=O)N(Cc2ccccc2)C1=O (stereo partly drawn) [(3S)-3-(1,3-benzodioxol-5-yl)-3-[({butyl[2,5-dioxo-1-(phenylmethyl)tetrahydro-1H-pyrrol-3-yl]amino}carbonyl)amino]propanoic acid]	–	80 to 85	70000

More lines, in order of falling IC50 (α4β1 integrin; Table 3), values ahead:

IC50 (α4β1 integrin; Table 3) [nM]	melting point [°C]	IC50 (α4β1 integrin; Table 4) [nM]	SMILES
8	134 to 136	–	Cc1ccc([C@H](CC(=O)O)NC(=O)Nc2c(O)c3ccccc3n(Cc3ccccc3Cl)c2=O)cc1 [(3S)-3-{[({1-[(2-chlorophenyl)methyl]-4-hydroxy-2-oxo-1,2-dihydro-3-quinolinyl}amino)carbonyl]amino}-3-(4-methylphenyl)propanoic acid]
5	124 to 126	–	Cc1ccc([C@H](CC(=O)O)NC(=O)Nc2c(OCc3ccccc3)cc(C)n(Cc3ccccc3)c2=O)cc1 [(3S)-3-{[({6-methyl-2-oxo-1-(phenylmethyl)-4-[(phenylmethyl)oxy]-1,2-dihydro-3-pyridinyl}amino)carbonyl]amino}-3-(4-methylphenyl)propanoic acid]
2	128 to 130	–	CCNC(=O)N(CC)C(=O)Nc1ccn(Cc2ccccc2Cl)c(=O)c1NC(=O)N[C@@H](CC(=O)O)c1ccc(C)cc1 [(3S)-3-{[({1-[(2-chlorophenyl)methyl]-4-[({ethyl[(ethylamino)carbonyl]amino}carbonyl)amino]-2-oxo-1,2-dihydro-3-pyridinyl}amino)carbonyl]amino}-3-(4-methylphenyl)propanoic acid]
